Measured values: US20150065416A1, “NOVEL DRUG COMBINATION” (FAB PHARMA SAS, priority 2013, published 2015)

Experiments:
[1] = tested on: A. baumannii RCH-69; assay: Mouse model of A. baumannii pneumonia, Study 3: survival; type: in vivo, Acinetobacter baumannii; conditions: neutropenic C3H/HeN mice, q 8 h I.P. 3 days, compound (I) 200 mg/kg, meropenem 50 mg/kg, colistin 125000 Ul/kg
Procedure: The bacterial inoculum was prepared in order to obtain a suspension containing 10^8 CFU/mL of Acinetobacter baumannii in saline.
Experimentations were performed with six-week old female C3H/HeN mice (18-20 g, Breeding Centre JANVIER (Ile saint Genest Mayenne 53)) because of their particular susceptibility to Acinetobacter baumannii and the reproducibility of the results (inbreeding in the breed). Each mouse was individually marked and housed in cages containing five animals/cage under ventilated and controlled (temperature and humidity) atmosphere.
The mice were rendered transiently neutropenic by 2 intra-peritoneal (IP) injections of 150 μL of cyclophosphamide (Endoxan® 150 mg/kg) 4 (D-4) and 3 (D-3) days before the Acinetobacter baumannii inoculation (Day 0). This transient immunosuppression was sufficient to facilitate the development of the A. baumannii pneumonia while allowing the recovery of the neutrophil influx 2 (Day 2) days after inoculation in order to avoid or limit a systemic bacterial dissemination.
Mice were anesthetized by a mixture of oxygen and isoflurane. The bacterial inoculation was performed on Day 0 by intra-tracheal installation using an endotracheal catheter (50 μl of the suspension, thus 5.106 CFU). The positioning of the catheter in the trachea (instead of in the oesophagus) was checked by a “ring test”. The bacterial count in lungs was checked for all study groups by sacrificing one mouse immediately after inoculation.
Survival observations were assessed twice daily, up to 4 days post infection. The survival rates were compared with the Chi-square test or the Fisher exact test as appropriate. The survival curves were compared by the Kaplan-Meier method.
The aim of this experiment was to assess the survival rate of transiently neutropenic female C3H/HeN mice administered, 3 hours post-inoculation of A. baumannii RCH-69 via intra-tracheal route, with a compound (I) via intra-peritoneal route at 200 mg/kg 3 times daily (every 8 hours) for 3 days alone and in combination with meropenem at 50 mg/kg 3 times daily (every 8 hours) for 3 days or with colistin at 125000 UI/kg 3 times daily (every 8 hours) for 3 days. 85 mice were allocated into 6 groups as follows.
Six vials of 8 mL each containing 94.2 mg/mL of compound (I) and 47.1 mg/mL of PVP 12 PF (Kollidon 12 PF) were prepared and stored between +2° C. and +8° C. Following storage, each vial was homogenized by manual shaking and diluted by 2-fold in 13.72 mg/mL NaCl aqueous solution in order to obtain a 47.1 mg of compound (I)/mL isotonic suspension. In Groups 2, 4 and 5, mice were administered with 100 μL of the 47.1 mg/mL compound (I) suspension.

[2] = tested on: Staphylococcus aureus (MSSA, MRSA, VISA, VRSA); conditions: VISA and VRSA strains; cited from earlier work
[3] = tested on: MSSA, MRSA and VISA infections; conditions: murine model; cited from earlier work
[4] = tested on: S. aureus; conditions: healthy human volunteers, Phase I study; cited from earlier work
[5] = 24 h after RCH strain infection
[6] = 48 h after RCH strain infection
[7] = 72 h after RCH strain infection
[8] = 96 h after RCH strain infection

Compound | No. of survivors ([1]; 0 h after RCH strain infection) | survivors (%) ([1]; 0 h after RCH strain infection) | No. of survivors [1, 5] | survivors (%) [1, 5] [%] | No. of survivors [1, 6] | No. of survivors [1, 7] | No. of survivors [1, 8] | in vitro activity [2] | in vivo activity [3] | ex vivo activity [4]
CCc1cc(O)c(Oc2ccc(C(N)=O)cc2F)cc1F [compound (I), 4-(4-ethyl-5-fluoro-2-hydroxyphenoxy)-3-fluorobenzamide] | 13 | 100 | 5 | 38 | 0 | 0 | 0 | highly active | active in vivo | ex vivo bactericidal activity
C[C@@H](O)[C@H]1C(=O)N2C(C(=O)O)=C(S[C@@H]3CN[C@H](C(=O)N(C)C)C3)[C@H](C)[C@H]12 [meropenem] | 14 | 100 | 14 | 100 | 0 | 0 | 0 |  |  | 
